Assay results taken from PMC11847258, “Phase I trial of the combination of the pan-ErbB inhibitor neratinib and mTOR inhibitor everolimus in advanced cancer patients with ErbB family gene alterations” (ESMO Open, 2025).
Read-outs that look alike come from different tables or passages of the source.

Columns and labels:
[1] = Plasma pharmacokinetics on cycle 1, day 15 (LC/MS, noncompartmental analysis); type: in vivo, human; details: for AUC(0-t): read-out: AUC0-24; for clearance: read-out: CLss (converted); for concentration at 24 h: read-out: Ctau or C24
Procedure: Pharmacokinetic (PK) analysis was conducted on cycle 1, day 15 for both everolimus and neratinib with blood samples collected at pre-dose, 1, 3, 4, 6, 8, and 24 hours post-dose. Following good clinical and laboratory practices, blood was collected into K2-EDTA vacutainers, gently inverted and mixed, then centrifuged at 3000 rpm (1500 g) for 10 min at 4°C. The resultant plasma was placed into cryovials and frozen at −70°C until analysis.

[2] = cited from earlier work
[3] = cited from earlier work; remark: listed apart in the source
[4] = Dose Level 2: neratinib 200mg/day + everolimus 5mg/day, n=3, Cycle 1, Day 15, mean (range)
[5] = Dose Level 4: neratinib 240mg/day + everolimus 7.5mg/day, n=5, Cycle 1, Day 15, mean (range)
[6] = human, plasma, oral, Dose Level 2: neratinib 200mg/day + everolimus 5mg/day, n=3, Cycle 1, Day 15, mean (range)
[7] = human, plasma, oral, Dose Level 2: neratinib 200mg/day + everolimus 5mg/day, n=3, Cycle 1, Day 15, mean (range), read-out: Tmax
[8] = human, plasma, oral, Dose Level 4: neratinib 240mg/day + everolimus 7.5mg/day, n=5, Cycle 1, Day 15, mean (range)
[9] = monotherapy 5mg, N=4, ref O’Donnell et.al.
[10] = monotherapy 10mg, N=33, ref O’Donnell et.al.
[11] = monotherapy 10mg, N=33, ref O’Donnell et.al., listed as everolimus
[12] = monotherapy 240mg, N=3, ref Wong et.al.
[13] = monotherapy 240mg, N=3, ref Wong et.al., listed as neratinib

**Q.** Which “AR (accumulation ratio)” value [1, 4] does the source give for `CO[C@H]1C[C@@H]2CC[C@@H](C)[C@@](O)(O2)C(=O)C(=O)N2CCCC[C@H]2C(=O)O[C@H]([C@H](C)C[C@@H]2CC[C@@H](OCCO)[C@H](OC)C2)CC(=O)[C@H](C)/C=C(\C)[C@@H](O)[C@@H](OC)C(=O)[C@H](C)C[C@H](C)/C=C/C=C/C=C/1C` [Everolimus, everolimus] here?
**A.** 1.2 (1.1-1.3)

**Q.** And the “Ctau or C24” value [1, 4]?
**A.** 0.42 (0-1.1) ng/mL

**Q.** And the “AR (accumulation ratio)” value [1, 5]?
**A.** 1.7 (1-2.6)

**Q.** And the “Ctau or C24” value [1, 5]?
**A.** 2.8 (0-9.9) ng/mL

**Q.** What about the Tmax [1, 5] of the same compound?
**A.** 4.8 h

**Q.** And the AUC(0-inf) [1, 6]?
**A.** 53.8 ng·h/mL

**Q.** What about the Cmax [1, 6] of the same compound?
**A.** 3.58 ng/mL

**Q.** What about the half-life [1, 6] of the same compound?
**A.** 8.2 h

**Q.** What about the AUC(0-t) [1, 6] of the same compound?
**A.** 24.3 ng·h/mL

**Q.** What about the clearance [1, 6] of the same compound?
**A.** 3370 mL/min

**Q.** What about the concentration at 24 h [1, 6] of the same compound?
**A.** 0.42 ng/mL

**Q.** And the Tmax [1, 7]?
**A.** 4.33 h

**Q.** What about the AUC(0-inf) [1, 8] of the same compound?
**A.** 253 ng·h/mL

**Q.** And the Cmax [1, 8]?
**A.** 8.5 ng/mL

**Q.** What about the half-life [1, 8] of the same compound?
**A.** 16.8 h

**Q.** And the AUC(0-t) [1, 8]?
**A.** 116 ng·h/mL

**Q.** What about the clearance [1, 8] of the same compound?
**A.** 2300 mL/min

**Q.** What about the concentration at 24 h [1, 8] of the same compound?
**A.** 2.8 ng/mL

**Q.** What about the Tmax ([1]; human, plasma, oral, both groups (DL 2 and DL 4), with neratinib, read-out: mean Tmax) of the same compound?
**A.** > 4 h

**Q.** What about the “TRAE all grades: Anemia” value [2, 9] of the same compound?
**A.** 1 (25)

**Q.** What about the “TRAE all grades: Anorexia” value [2, 9] of the same compound?
**A.** 1 (25)

**Q.** And the “TRAE all grades: Constipation” value [2, 9]?
**A.** 1 (25)

**Q.** And the “TRAE all grades: Mucositis” value [2, 9]?
**A.** 2 (50)

**Q.** What about the “TRAE all grades: Nausea” value [2, 9] of the same compound?
**A.** 1 (25)

**Q.** What about the “TRAE all grades: Pruritus” value [2, 9] of the same compound?
**A.** 1 (25)

**Q.** And the “TRAE all grades: Rash” value [2, 9]?
**A.** 2 (50)

**Q.** What about the “Grade ≥ 3 treatment-related: Anorexia” value [2, 10] of the same compound?
**A.** 2 (6.1)

**Q.** And the “Grade ≥ 3 treatment-related: Dyspnea” value [2, 10]?
**A.** 1 (3)

**Q.** What about the “Grade ≥ 3 treatment-related: Epistaxis” value [2, 10] of the same compound?
**A.** 1 (3)

**Q.** And the “Grade ≥ 3 treatment-related: GI hemorrhage” value [2, 10]?
**A.** 1 (3)

**Q.** And the “Grade ≥ 3 treatment-related: Hyperglycemia” value [2, 10]?
**A.** 2 (6.1)

**Q.** And the “Grade ≥ 3 treatment-related: Hypertriglyceridemia” value [2, 10]?
**A.** 1 (3)

**Q.** And the “Grade ≥ 3 treatment-related: Mucositis” value [2, 10]?
**A.** 2 (6.1)

**Q.** And the “Grade ≥ 3 treatment-related: Nausea” value [2, 10]?
**A.** 1 (3)

**Q.** What about the “Grade ≥ 3 treatment-related: Pneumonia” value [2, 10] of the same compound?
**A.** 1 (3)

**Q.** What about the “Grade ≥ 3 treatment-related: Rash” value [2, 10] of the same compound?
**A.** 1 (3)

**Q.** And the “Grade ≥ 3 treatment-related: Thrombocytopenia” value [2, 10]?
**A.** 2 (6.1)

**Q.** What about the “TRAE all grades: Anorexia” value [2, 10] of the same compound?
**A.** 11 (33.3)

**Q.** What about the “TRAE all grades: Constipation” value [2, 10] of the same compound?
**A.** 7 (21.2)

**Q.** What about the “TRAE all grades: Diarrhea” value [2, 10] of the same compound?
**A.** 7 (21.2)

**Q.** What about the “TRAE all grades: Fatigue” value [2, 10] of the same compound?
**A.** 12 (36.4)

**Q.** What about the “TRAE all grades: Headache” value [2, 10] of the same compound?
**A.** 7 (21.2)

**Q.** What about the “TRAE all grades: Mucositis” value [2, 10] of the same compound?
**A.** 17 (51.5)

**Q.** What about the “TRAE all grades: Nausea” value [2, 10] of the same compound?
**A.** 14 (42.4)

**Q.** And the “TRAE all grades: Rash” value [2, 10]?
**A.** 20 (60.6)

**Q.** What about the “TRAE all grades: Vomiting” value [2, 10] of the same compound?
**A.** 5 (15.2)

**Q.** What about the “TRAE all grades: Mucositis” value [2, 11] of the same compound?
**A.** 51.5

**Q.** And the “TRAE all grades: Nausea” value [2, 11]?
**A.** 42.4

**Q.** What about the “TRAE all grades: Rash” value [2, 11] of the same compound?
**A.** 60.6

**Q.** What about the Tmax ([2]; single agent) of the same compound?
**A.** 1 to 2 h

**Q.** And the “dose with acceptable tolerability suggested by PK analysis (MTD undetermined)” value ([2]; single agent)?
**A.** 10 mg/day

**Q.** For `CCOc1cc2ncc(C#N)c(Nc3ccc(OCc4ccccn4)c(Cl)c3)c2cc1NC(=O)/C=C/CN(C)C` [Neratinib, neratinib], which “AR (accumulation ratio)” value [1, 4] is on record?
**A.** 1.41(1.2-1.9)

**Q.** What about the “AUC0-∞” value [1, 4] of the same compound?
**A.** 910 (195-2125) ng*h/mL

**Q.** And the “Ctau or C24” value [1, 4]?
**A.** 13.6 (2.6-31.8) ng/mL

**Q.** And the “AR (accumulation ratio)” value [1, 5]?
**A.** 2.29 (1.4-3.8)

**Q.** And the “Ctau or C24” value [1, 5]?
**A.** 44 (14.5-125) ng/mL

**Q.** And the Cmax [1, 6]?
**A.** 35.8 ng/mL

**Q.** And the half-life [1, 6]?
**A.** 13.1 h

**Q.** What about the AUC(0-t) [1, 6] of the same compound?
**A.** 400 ng·h/mL

**Q.** And the clearance [1, 6]?
**A.** 9970 mL/min

**Q.** And the concentration at 24 h [1, 6]?
**A.** 13.6 ng/mL

**Q.** And the Tmax [1, 7]?
**A.** 4.8 h

**Q.** And the AUC(0-inf) [1, 8]?
**A.** 3930 ng·h/mL

**Q.** And the Cmax [1, 8]?
**A.** 83.4 ng/mL

**Q.** And the half-life [1, 8]?
**A.** 28.6 h

**Q.** What about the AUC(0-t) [1, 8] of the same compound?
**A.** 1170 ng·h/mL

**Q.** And the clearance [1, 8]?
**A.** 4820 mL/min

**Q.** What about the concentration at 24 h [1, 8] of the same compound?
**A.** 44 ng/mL

**Q.** What about the Tmax ([1]; human, plasma, oral, Dose Level 4: neratinib 240mg/day + everolimus 7.5mg/day, n=5, Cycle 1, Day 15, mean (range), read-out: Tmax) of the same compound?
**A.** 4.2 h

**Q.** And the “TRAE all grades: Anorexia” value [3, 12]?
**A.** 2 (67)

**Q.** What about the “TRAE all grades: Diarrhea” value [3, 12] of the same compound?
**A.** 3 (100)

**Q.** And the “TRAE all grades: Fatigue” value [3, 12]?
**A.** 2 (67)

**Q.** And the “TRAE all grades: Nausea” value [3, 12]?
**A.** 2 (67)

**Q.** What about the “TRAE all grades: Rash” value [3, 12] of the same compound?
**A.** 1 (33)

**Q.** What about the “TRAE all grades: Vomiting” value [3, 12] of the same compound?
**A.** 1 (33)

**Q.** And the “TRAE all grades: Anorexia” value [3, 13]?
**A.** 67

**Q.** And the “TRAE all grades: Diarrhea” value [3, 13]?
**A.** 100

**Q.** What about the “TRAE all grades: Fatigue” value [3, 13] of the same compound?
**A.** 67

**Q.** And the “TRAE all grades: Nausea” value [3, 13]?
**A.** 67

**Q.** What about the MTD ([3]; monotherapy) of the same compound?
**A.** 320 mg
